Test results taken from patent US20190307776A1, “AZA-S[…] HUMAN IMMUNODEFICIENCY VIRUS REPLICATION” (priority 2016, published 2019).
pEC50: −log10 of the molar value.

Test system: recombinant NL4-3 virus
Assay: HIV cell culture assay
Type: cell-based
Conditions: Human immunodeficiency virus 1, NL43, MT2
Description: HIV cell culture assay—MT-2 cells and 293T cells were obtained from the NIH AIDS Research and Reference Reagent Program. MT-2 cells were propagated in RPMI 1640 media supplemented with 10% heat inactivated fetal bovine serum, 100 […]. The 293T cells were propagated in DMEM media supplemented with 10% heat inactivated fetal bovine serum (FBS), 100 units/ml penicillin G and 100 μg/ml streptomycin. The proviral DNA clone of NL4-3 was obtained from the NIH AIDS Research and Reference Reagent Program. A recombinant NL4-3 virus, in which a section of the nef gene from NL4-3 was replaced with the Renilla luciferase gene, was used as a reference virus. In addition, residue Gag P373 was converted to P373S. Briefly, the recombinant virus was prepared by transfection of the altered proviral clone of NL4-3. Transfections were performed in 293T cells using LipofectAMINE PLUS from Invitrogen (Carlsbad, Calif.), according to manufacturer's instruction. The virus was titered in MT-2 cells using luciferase enzyme activity as a marker. Luciferase was quantitated using the Dual Luciferase kit from Promega (Madison, Wis.), with modifications to the manufacturer's protocol. The diluted Passive Lysis solution was pre-mixed with the re-suspended Luciferase Assay Reagent and the re-suspended Stop & Glo Substrate (2:1:1 ratio). Fifty (50) μL of the mixture was added to each aspirated well on assay plates and luciferase activity was measured immediately on a Wallac TriLux (Perkin-Elmer). Antiviral activities of inhibitors toward the recombinant virus were quantified by measuring luciferase activity in cells infected for 4-5 days with NLRluc recombinants in the presence serial dilutions of the inhibitor.

Row | SMILES | pEC50
1 | C=C(C)[C@@H]1CC[C@]2(CO)CC[C@]3(C)[C@H](CC[C@@H]4[C@@]5(C)CCCN(S(=O)(=O)c6ccc(/C=C/C(=O)O)cc6)C(C)(C)C5CC[C@]43C)[C@@H]12 (stereo partly drawn) [Example 12, (E)-3-(4-(((7aR,7bR,9aS,12R,12aR,12bR,14aR,14bR)-9a-(hydroxymethyl)-5,5,7a,7b,14b-pentamethyl-12-(prop-1-en-2-yl)icosahydrocyclopenta[7,8]phenanthro[2,1-c]azepin-4(1H)-yl)sulfonyl)phenyl)acrylic acid] | < 5.10
2 | C=C(C)[C@@H]1CC[C@]2(CNCCCN3CCS(=O)(=O)CC3)CC[C@]3(C)[C@H](CC[C@@H]4[C@@]5(C)CCN(C(=O)CC(C)(C)C(=O)O)C(C)(C)[C@@H]5CC[C@]43C)[C@@H]12 [Example 23, 4-((4aR,6aR,6bR,8aS,11R,11aR,11bR,13aR,13bR)-8a-(((3-(1,1-dioxidothiomorpholino)propyl)amino)methyl)-4,4,6a,6b,13b-pentamethyl-11-(prop-1-en-2-yl)icosahydro-3H-cyclopenta[5,6]naphtho[2,1-f]isoquinolin-3-yl)-2,2-dimethyl-4-oxobutanoic acid] | 6.41
3 | C=C(C)[C@@H]1CC[C@]2(CNCCCN3CCS(=O)(=O)CC3)CC[C@]3(C)[C@H](CC[C@@H]4[C@@]5(C)CCN(c6ncc(C(=O)O)s6)C(C)(C)[C@@H]5CC[C@]43C)[C@@H]12 [Example 56, 2-((4aR,6aR,6bR,8aS,11R,11aR,11bR,13aR,13bR)-8a-(((3-(1,1-dioxidothiomorpholino)propyl)amino)methyl)-4,4,6a,6b,13b-pentamethyl-11-(prop-1-en-2-yl)hexadecahydro-1H-cyclopenta[5,6]naphtho[2,1-f]isoquinolin-3(2H,4H,13bH)-yl)thiazole-5-carboxylic acid] | 8.40
4 | C=C(C)[C@@H]1CC[C@]2(CO)CC[C@]3(C)[C@H](CC[C@@H]4[C@@]5(C)CCCN(C(=O)CC(=O)O)C(C)(C)C5CC[C@]43C)[C@@H]12 (stereo partly drawn) [Example 1, 3-((7aR,7bR,9aS,12R,12aR,12bR,14aR,14bR)-9a-(hydroxymethyl)-5,5,7a,7b,14b-pentamethyl-12-(prop-1-en-2-yl)icosahydrocyclopenta[7,8]phenanthro[2,1-c]azepin-4(1H)-yl)-3-oxopropanoic acid] | 5.64
5 | C=C(C)[C@@H]1CC[C@]2(CN(C)CCCN3CCS(=O)(=O)CC3)CC[C@]3(C)[C@H](CC[C@@H]4[C@@]5(C)CCN(CC(=O)NC(C)(C)C(=O)O)C(C)(C)[C@@H]5CC[C@]43C)[C@@H]12 [Example 36, 2-(2-((4aR,6aR,6bR,8aS,11R,11aR,11bR,13aR,13bR)-8a-(((3-(1,1-dioxidothiomorpholino)propyl)(methyl)amino)methyl)-4,4,6a,6b,13b-pentamethyl-11-(prop-1-en-2-yl)hexadecahydro-1H-cyclopenta[5,6]naphtho[2,1-f]isoquinolin-3(2H,4H,13bH)-yl)acetamido)-2-methylpropanoic acid] | 5.89
6 | C=C(C)[C@@H]1CC[C@]2(CNCCCN3CCS(=O)(=O)CC3)CC[C@]3(C)[C@H](CC[C@@H]4[C@@]5(C)CCN(C(=O)CCC(C)(C)C(=O)O)C(C)(C)[C@@H]5CC[C@]43C)[C@@H]12 [Example 25, 5-((4aR,6aR,6bR,8aS,11R,11aR,11bR,13aR,13bR)-8a-(((3-(1,1-dioxidothiomorpholino)propyl)amino)methyl)-4,4,6a,6b,13b-pentamethyl-11-(prop-1-en-2-yl)hexadecahydro-1H-cyclopenta[5,6]naphtho[2,1-f]isoquinolin-3(2H,4H,13bH)-yl)-2,2-dimethyl-5-oxopentanoic acid] | 6.92
7 | C=C(C)[C@@H]1CC[C@]2(CO)CC[C@]3(C)[C@H](CC[C@@H]4[C@@]5(C)CCN(C(=O)CCC(=O)O)C(C)(C)C5CC[C@]43C)[C@@H]12 (stereo partly drawn) [Example 9, 4-((6aR,6bR,8aS,11R,11aR,11bR,13aR,13bR)-8a-(hydroxymethyl)-4,4,6a,6b,13b-pentamethyl-11-(prop-1-en-2-yl)icosahydro-3H-cyclopenta[5,6]naphtho[2,1-f]isoquinolin-3-yl)-4-oxobutanoic acid] | 5.56
8 | C=C(C)[C@@H]1CC[C@]2(CO)CC[C@]3(C)[C@H](CC[C@@H]4[C@@]5(C)CCN(C(=O)CC(=O)O)C(C)(C)C5CC[C@]43C)[C@@H]12 (stereo partly drawn) [Example 7, 3-((6aR,6bR,8aS,11R,11aR,11bR,13aR,13bR)-8a-(hydroxymethyl)-4,4,6a,6b,13b-pentamethyl-11-(prop-1-en-2-yl)icosahydro-3H-cyclopenta[5,6]naphtho[2,1-f]isoquinolin-3-yl)-3-oxopropanoic acid] | 6.32
9 | C=C(C)[C@@H]1CC[C@]2(CNCCCN3CCS(=O)(=O)CC3)CC[C@]3(C)[C@H](CC[C@@H]4[C@@]5(C)CCN(C(=O)/C=C/C(=O)O)C(C)(C)[C@@H]5CC[C@]43C)[C@@H]12 [Example 32, (E)-4-((4aR,6aR,6bR,8aS,11R,11aR,11bR,13aR,13bR)-8a-(((3-(1,1-dioxidothiomorpholino)propyl)amino)methyl)-4,4,6a,6b,13b-pentamethyl-11-(prop-1-en-2-yl)hexadecahydro-1H-cyclopenta[5,6]naphtho[2,1-f]isoquinolin-3(2H,4H,13bH)-yl)-4-oxobut-2-enoic acid] | 6.52
10 | C=C(C)[C@@H]1CC[C@]2(CO)CC[C@]3(C)[C@H](CC[C@@H]4[C@@]5(C)CCN(S(=O)(=O)c6ccc(/C=C/C(=O)O)cc6)C(C)(C)C5CC[C@]43C)[C@@H]12 (stereo partly drawn) [Example 18, (E)-3-(4-(((6aR,6bR,8aS,11R,11aR,11bR,13aR,13bR)-8a-(hydroxymethyl)-4,4,6a,6b,13b-pentamethyl-11-(prop-1-en-2-yl)icosahydro-3H-cyclopenta[5,6]naphtho[2,1-f]isoquinolin-3-yl)sulfonyl)phenyl)acrylic acid] | 5.38
11 | C=C(C)[C@@H]1CC[C@]2(CNCCCN3CCS(=O)(=O)CC3)CC[C@]3(C)[C@H](CC[C@@H]4[C@@]5(C)CCN(c6c(O)c(=O)c6=O)C(C)(C)[C@@H]5CC[C@]43C)[C@@H]12 [Example 55, 3-((4aR,6aR,6bR,8aS,11R,11aR,11bR,13aR,13bR)-8a-(((3-(1,1-dioxidothiomorpholino)propyl)amino)methyl)-4,4,6a,6b,13b-pentamethyl-11-(prop-1-en-2-yl)hexadecahydro-1H-cyclopenta[5,6]naphtho[2,1-f]isoquinolin-3(2H,4H,13bH)-yl)-4-hydroxycyclobut-3-ene-1,2-dione] | 6.60
12 | C=C(C)[C@@H]1CC[C@]2(CNCCCN3CCS(=O)(=O)CC3)CC[C@]3(C)[C@H](CC[C@@H]4[C@@]5(C)CCN(CC(=O)O)C(C)(C)[C@@H]5CC[C@]43C)[C@@H]12 [Example 33, 2-((4aR,6aR,6bR,8aS,11R,11aR,11bR,13aR,13bR)-8a-(((3-(1,1-dioxidothiomorpholino)propyl)amino)methyl)-4,4,6a,6b,13b-pentamethyl-11-(prop-1-en-2-yl)hexadecahydro-1H-cyclopenta[5,6]naphtho[2,1-f]isoquinolin-3(2H,4H,13bH)-yl)acetic acid] | < 5.52
13 | C=C(C)[C@@H]1CC[C@]2(CNCCCN3CCS(=O)(=O)CC3)CC[C@]3(C)[C@H](CC[C@@H]4[C@@]5(C)CCN(c6ccc(C(N)=O)cn6)C(C)(C)[C@@H]5CC[C@]43C)[C@@H]12 [Example 41, 6-((4aR,6aR,6bR,8aS,11R,11aR,11bR,13aR,13bR)-8a-(((3-(1,1-dioxidothiomorpholino)propyl)amino)methyl)-4,4,6a,6b,13b-pentamethyl-11-(prop-1-en-2-yl)hexadecahydro-1H-cyclopenta[5,6]naphtho[2,1-f]isoquinolin-3(2H,4H,13bH)-yl)nicotinamide] | 6.40
14 | C=C(C)[C@@H]1CC[C@]2(CO)CC[C@]3(C)[C@H](CC[C@@H]4[C@@]5(C)CCCN(S(=O)(=O)c6cccc(C(=O)O)c6)C(C)(C)C5CC[C@]43C)[C@@H]12 (stereo partly drawn) [Example 13, 3-(((7aR,7bR,9aS,12R,12aR,12bR,14aR,14bR)-9a-(hydroxymethyl)-5,5,7a,7b,14b-pentamethyl-12-(prop-1-en-2-yl)icosahydrocyclopenta[7,8]phenanthro[2,1-c]azepin-4(1H)-yl)sulfonyl)benzoic acid] | < 5.10
15 | C=C(C)[C@@H]1CC[C@]2(CNCCCN3CCS(=O)(=O)CC3)CC[C@]3(C)[C@H](CC[C@@H]4[C@@]5(C)CCN(C(=O)CC6(CC(=O)O)CCCC6)C(C)(C)[C@@H]5CC[C@]43C)[C@@H]12 [Example 26, 2-(1-(2-((4aR,6aR,6bR,8aS,11R,11aR,11bR,13aR,13bR)-8a-(((3-(1,1-dioxidothiomorpholino)propyl)amino)methyl)-4,4,6a,6b,13b-pentamethyl-11-(prop-1-en-2-yl)hexadecahydro-1H-cyclopenta[5,6]naphtho[2,1-f]isoquinolin-3(2H,4H,13bH)-yl)-2-oxoethyl)cyclopentyl)acetic acid] | 6.89
